According to PubChem BioAssay AID1745844 (Carcinogenic Potency Database (CPDB), 2022):
The source made the active and inactive calls. How the calls were made is not given here.

Tested on: rodent lifetime carcinogenesis bioassay, tumor incidence TD50
Assay: chronic cancer bioassays in animals – CPDB, compiled studies (AID 1745844)
[1] = mouse, strain B6AKF1, females, oral dosing, site: any site (literature study), lesion: several types, types named in the paper, dosed 76 weeks, study length 76 weeks
[2] = mouse, strain B6AKF1, females, oral dosing, site: liver, lesion: hepatoma, dosed 76 weeks, study length 76 weeks
[3] = mouse, strain B6AKF1, females, oral dosing, site: lung, lesion: adenoma, dosed 76 weeks, study length 76 weeks
[4] = mouse, strain B6AKF1, males, oral dosing, site: any site (literature study), lesion: several types, types named in the paper, dosed 76 weeks, study length 76 weeks
[5] = mouse, strain B6AKF1, males, oral dosing, site: liver, lesion: hepatoma, dosed 76 weeks, study length 76 weeks
[6] = mouse, strain B6AKF1, males, oral dosing, site: lung, lesion: adenoma, dosed 76 weeks, study length 76 weeks
[7] = mouse, strain B6C3F1, females, oral dosing, site: any site (literature study), lesion: several types, types named in the paper, dosed 76 weeks, study length 76 weeks
[8] = mouse, strain B6C3F1, females, oral dosing, site: liver, lesion: hepatoma, dosed 76 weeks, study length 76 weeks
[9] = mouse, strain B6C3F1, females, oral dosing, site: lung, lesion: several types, types named in the paper, dosed 76 weeks, study length 76 weeks
[10] = mouse, strain B6C3F1, males, oral dosing, site: any site (literature study), lesion: several types, types named in the paper, dosed 76 weeks, study length 76 weeks
[11] = mouse, strain B6C3F1, males, oral dosing, site: liver, lesion: hepatoma, dosed 76 weeks, study length 76 weeks
[12] = mouse, strain B6C3F1, males, oral dosing, site: lung, lesion: adenoma, dosed 76 weeks, study length 76 weeks

## Oc1ccc2ccccc2c1N=Nc1ccccc1
mouse, strain B6C3F1, females, in feed, site: all sites, lesion: lymphoma, dosed 103 weeks, study length 105 weeks
  TD50: 128 mg/kg/day (inactive)
mouse, strain B6C3F1, females, in feed, site: any site (literature study), lesion: several types, types named in the paper, dosed 103 weeks, study length 105 weeks
  TD50: 391 mg/kg/day
mouse, strain B6C3F1, females, in feed, site: liver, lesion: hepatocellular adenoma + hepatocellular carcinoma + neoplastic nodule, dosed 103 weeks, study length 105 weeks
  TD50: 833 mg/kg/day
mouse, strain B6C3F1, females, in feed, site: lung, lesion: alveolar/bronchiolar adenoma + alveolar/bronchiolar carcinoma, dosed 103 weeks, study length 105 weeks
  TD50: 3030 mg/kg/day
mouse, strain B6C3F1, males, in feed, site: any site (literature study), lesion: several types, types named in the paper, dosed 103 weeks, study length 105 weeks
  TD50: 154 mg/kg/day (inactive)
mouse, strain B6C3F1, males, in feed, site: liver, lesion: hepatocellular adenoma + hepatocellular carcinoma + neoplastic nodule, dosed 103 weeks, study length 105 weeks
  TD50: 587 mg/kg/day
mouse, strain B6C3F1, males, in feed, site: lung, lesion: alveolar/bronchiolar adenoma + alveolar/bronchiolar carcinoma, dosed 103 weeks, study length 105 weeks
  TD50: 1080 mg/kg/day
mouse, strain CBA, females, in feed, site: liver, lesion: hepatoma, dosed 52 weeks, study length 104 weeks
  carcinogen call: negative (inactive)
mouse, strain CBA, males, in feed, site: liver, lesion: hepatoma, dosed 52 weeks, study length 104 weeks
  carcinogen call: negative (inactive)
rat, strain Fischer 344, females, in feed, site: liver, lesion: hepatocellular adenoma + hepatocellular carcinoma + neoplastic nodule, dosed 103 weeks, study length 104 weeks
  TD50: 86.5 mg/kg/day
rat, strain Fischer 344, females, in feed, site: liver, lesion: hepatocellular carcinoma + neoplastic nodule, dosed 103 weeks, study length 104 weeks
  TD50: 86.5 mg/kg/day
rat, strain Fischer 344, females, in feed, site: liver, lesion: neoplastic nodule, dosed 103 weeks, study length 104 weeks
  TD50: 96.6 mg/kg/day
rat, strain Fischer 344, females, in feed, site: subcutaneous tissue, lesion: fibroma, dosed 103 weeks, study length 104 weeks
  TD50: 346 mg/kg/day
rat, strain Fischer 344, males, in feed, site: any site (literature study), lesion: several types, types named in the paper, dosed 103 weeks, study length 104 weeks
  TD50: 106 mg/kg/day
rat, strain Fischer 344, males, in feed, site: liver, lesion: hepatocellular adenoma + hepatocellular carcinoma + neoplastic nodule, dosed 103 weeks, study length 104 weeks
  TD50: 17.9 mg/kg/day
rat, strain Fischer 344, males, in feed, site: liver, lesion: hepatocellular carcinoma + neoplastic nodule, dosed 103 weeks, study length 104 weeks
  TD50: 17.9 mg/kg/day
rat, strain Fischer 344, males, in feed, site: liver, lesion: neoplastic nodule, dosed 103 weeks, study length 104 weeks
  TD50: 17.7 mg/kg/day

## Cc1ccc2c(-c3ccccc3)nc(=O)n(C(C)C)c2c1
mouse, strain Charles River CD1, females, in feed, site: liver, lesion: hemangioendothelial sarcoma, dosed 86 weeks, study length 86 weeks
  carcinogen call: negative (inactive)
mouse, strain Charles River CD1, females, in feed, site: liver, lesion: hemangioma, dosed 86 weeks, study length 86 weeks
  TD50: 48700 mg/kg/day (inactive)
mouse, strain Charles River CD1, females, in feed, site: liver, lesion: hepatocellular carcinoma, dosed 86 weeks, study length 86 weeks
  carcinogen call: negative (inactive)
mouse, strain Charles River CD1, females, in feed, site: lung, lesion: alveolar/bronchiolar adenoma, dosed 86 weeks, study length 86 weeks
  carcinogen call: negative (inactive)
mouse, strain Charles River CD1, females, in feed, site: lung, lesion: alveolar/bronchiolar carcinoma, dosed 86 weeks, study length 86 weeks
  carcinogen call: negative (inactive)
mouse, strain Charles River CD1, males, in feed, site: liver, lesion: hemangioma, dosed 86 weeks, study length 86 weeks
  TD50: 14000 mg/kg/day (inactive)
mouse, strain Charles River CD1, males, in feed, site: liver, lesion: hepatocellular carcinoma, dosed 86 weeks, study length 86 weeks
  TD50: 4350 mg/kg/day (inactive)
mouse, strain Charles River CD1, males, in feed, site: lung, lesion: alveolar/bronchiolar adenoma, dosed 86 weeks, study length 86 weeks
  TD50: 5450 mg/kg/day (inactive)
mouse, strain Charles River CD1, males, in feed, site: lung, lesion: alveolar/bronchiolar carcinoma, dosed 86 weeks, study length 86 weeks
  carcinogen call: negative (inactive)

## c1ccc2sc(SNC3CCCCC3)nc2c1
[1]
  carcinogen call: negative (inactive)
[2]
  carcinogen call: negative (inactive)
[3]
  carcinogen call: negative (inactive)
[4]
  carcinogen call: negative (inactive)
[5]
  carcinogen call: negative (inactive)
[6]
  carcinogen call: negative (inactive)
[7]
  TD50: 243 mg/kg/day (inactive)
[8]
  carcinogen call: negative (inactive)
[9]
  carcinogen call: negative (inactive)
[10]
  TD50: 50.8 mg/kg/day (inactive)
[11]
  TD50: 92.7 mg/kg/day (inactive)
[12]
  TD50: 532 mg/kg/day (inactive)

## CC(/C=C/C=C(\C)C(=O)O[C@@H]1O[C@H](CO[C@@H]2O[C@H](CO)[C@@H](O)[C@H](O)[C@H]2O)[C@@H](O)[C@H](O)[C@H]1O)=C\C=C\C=C(C)\C=C\C=C(/C)C(=O)O[C@@H]1O[C@H](CO[C@@H]2O[C@H](CO)[C@@H](O)[C@H](O)[C@H]2O)[C@@H](O)[C@H](O)[C@H]1O
mouse, strain C57BL/6N, females, in drinking water, site: liver, lesion: hepatoma, dosed 95 weeks, study length 95 weeks
  carcinogen call: negative (inactive)
mouse, strain C57BL/6N, females, in drinking water, site: lung, lesion: one or several types, types not named, dosed 95 weeks, study length 95 weeks
  carcinogen call: negative (inactive)
mouse, strain C57BL/6N, males, in drinking water, site: liver, lesion: hepatoma, dosed 95 weeks, study length 95 weeks
  carcinogen call: negative (inactive)
mouse, strain C57BL/6N, males, in drinking water, site: lung, lesion: one or several types, types not named, dosed 95 weeks, study length 95 weeks
  carcinogen call: negative (inactive)

## CC(O)CN(CC(C)O)CC(C)O (stereo not given)
rat, strain Wistar, males, in feed, site: liver, lesion: one or several types, types not named, dosed 102 weeks, study length 102 weeks
  carcinogen call: negative (inactive)

## CCCCNC(=O)N(CCCC)N=O
rat, strain Donryu, females, in drinking water, site: all sites, lesion: leukemia, dosed 75 weeks, study length 75 weeks
  TD50: 32 mg/kg/day
rat, strain Donryu, females, in drinking water, site: any site (literature study), lesion: several types, types named in the paper, dosed 75 weeks, study length 75 weeks
  TD50: 2.67 mg/kg/day
rat, strain Donryu, females, in drinking water, site: liver, lesion: adenoma, dosed 75 weeks, study length 75 weeks
  TD50: 303 mg/kg/day
rat, strain Donryu, females, in drinking water, site: mammary gland, lesion: adenocarcinoma, dosed 75 weeks, study length 75 weeks
  TD50: 22.7 mg/kg/day
rat, strain Donryu, females, in drinking water, site: mammary tissue, wider than the gland, lesion: fibroadenoma, dosed 75 weeks, study length 75 weeks
  TD50: 2.23 mg/kg/day
rat, strain Donryu, females, in drinking water, site: mammary tissue, wider than the gland, lesion: several types, types named in the paper, dosed 75 weeks, study length 75 weeks
  TD50: 4.28 mg/kg/day
rat, strain Donryu, females, in drinking water, site: uterus, lesion: several types, types named in the paper, dosed 75 weeks, study length 75 weeks
  TD50: 15.3 mg/kg/day

## CCCCNN
mouse, strain Swiss albino, females, in drinking water, site: lung, lesion: adenocarcinoma, dosed 119 weeks, study length 119 weeks
  TD50: 50.6 mg/kg/day
mouse, strain Swiss albino, females, in drinking water, site: lung, lesion: adenoma, dosed 119 weeks, study length 119 weeks
  TD50: 19.3 mg/kg/day
mouse, strain Swiss albino, females, in drinking water, site: lung, lesion: several types, types named in the paper, dosed 119 weeks, study length 119 weeks
  TD50: 18.4 mg/kg/day
mouse, strain Swiss albino, males, in drinking water, site: lung, lesion: adenoma, dosed 100 weeks, study length 100 weeks
  TD50: 8.4 mg/kg/day
mouse, strain Swiss albino, males, in drinking water, site: lung, lesion: several types, types named in the paper, dosed 100 weeks, study length 100 weeks
  TD50: 9.03 mg/kg/day

## C[C@]12C=CC(=O)C=C1CC[C@@H]1[C@@H]2C(=O)C[C@@]2(C)[C@H]1CC[C@]2(O)C(=O)CO
mouse, strain Charles River CD1, females, in feed, site: liver, lesion: several types, types named in the paper, dosed 78 weeks, study length 78 weeks
  carcinogen call: negative (inactive)
mouse, strain Charles River CD1, females, in feed, site: lung, lesion: alveolar/bronchiolar tumor, dosed 78 weeks, study length 78 weeks
  carcinogen call: negative (inactive)
mouse, strain Charles River CD1, females, in feed, site: lung, lesion: undifferentiated carcinoma, dosed 78 weeks, study length 78 weeks
  carcinogen call: negative (inactive)
mouse, strain Charles River CD1, males, in feed, site: liver, lesion: several types, types named in the paper, dosed 78 weeks, study length 78 weeks
  carcinogen call: negative (inactive)
mouse, strain Charles River CD1, males, in feed, site: lung, lesion: alveolar/bronchiolar tumor, dosed 78 weeks, study length 78 weeks
  carcinogen call: negative (inactive)

## O=P(O)(O)O
mouse, strain B6C3F1, females, by gavage, site: any site (literature study), lesion: several types, types named in the paper, dosed 103 weeks, study length 105 weeks
  TD50: 958 mg/kg/day
mouse, strain B6C3F1, females, by gavage, site: liver, lesion: hepatocellular adenoma + hepatocellular carcinoma + neoplastic nodule, dosed 103 weeks, study length 105 weeks
  TD50: 3710 mg/kg/day
mouse, strain B6C3F1, females, by gavage, site: subcutaneous tissue, lesion: sarcoma, NOS, dosed 103 weeks, study length 105 weeks
  TD50: 1490 mg/kg/day (inactive)
mouse, strain B6C3F1, males, by gavage, site: adrenal gland, lesion: cortical adenoma, dosed 103 weeks, study length 104 weeks
  TD50: 5840 mg/kg/day (inactive)
mouse, strain B6C3F1, males, by gavage, site: any site (literature study), lesion: several types, types named in the paper, dosed 103 weeks, study length 104 weeks
  TD50: 11600 mg/kg/day
mouse, strain B6C3F1, males, by gavage, site: liver, lesion: hepatocellular adenoma + hepatocellular carcinoma + neoplastic nodule, dosed 103 weeks, study length 104 weeks
  TD50: 2950 mg/kg/day
mouse, strain B6C3F1, males, by gavage, site: lung, lesion: alveolar/bronchiolar adenoma + alveolar/bronchiolar carcinoma, dosed 103 weeks, study length 104 weeks
  TD50: 19900 mg/kg/day
mouse, strain B6C3F1, males, by gavage, site: multiple organs, lesion: malignant lymphoma, lymphocytic type, dosed 103 weeks, study length 104 weeks
  TD50: 8420 mg/kg/day

## Oc1ccc(OCc2ccccc2)cc1
[1]
  carcinogen call: negative (inactive)
[2]
  carcinogen call: negative (inactive)
[3]
  carcinogen call: negative (inactive)
[4]
  carcinogen call: negative (inactive)
[5]
  carcinogen call: negative (inactive)
[6]
  carcinogen call: negative (inactive)
[7]
  TD50: 1230 mg/kg/day (inactive)
[8]
  carcinogen call: negative (inactive)
[9]
  carcinogen call: negative (inactive)
[10]
  TD50: 141 mg/kg/day (inactive)
[11]
  TD50: 382 mg/kg/day (inactive)
[12]
  TD50: 382 mg/kg/day (inactive)
